Results reported in patent US5744462A, “Steroids useful as anti-cancer and anti-obesity agents” (Research Corporation Technologies, Inc., priority 1995, dated 1998).
Where “and” joins values, the source holds several entries; their conditions need not be identical. Equal values may be shown once. Entries after “also recorded” stand apart in the source; their conditions may differ.

What was measured:
[1] = after carcinogen; cited from earlier work
[2] = in vivo; cited from earlier work
[3] = DMBA-initiated and TPA-promoted; cited from earlier work
[4] = topical, complete carcinogenesis model; cited from earlier work
[5] = biological target: purified bovine adrenal G6PDH (Bos taurus, UniProt F1MMK2); assay: G6PDH inhibition test; assay type: biochemical; conditions: individual determinations
purified bovine adrenal G6PDH, sequence (F1MMK2 31-70): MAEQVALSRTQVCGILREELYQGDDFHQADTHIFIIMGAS
purified bovine adrenal G6PDH, sequence (F1MMK2 101-575): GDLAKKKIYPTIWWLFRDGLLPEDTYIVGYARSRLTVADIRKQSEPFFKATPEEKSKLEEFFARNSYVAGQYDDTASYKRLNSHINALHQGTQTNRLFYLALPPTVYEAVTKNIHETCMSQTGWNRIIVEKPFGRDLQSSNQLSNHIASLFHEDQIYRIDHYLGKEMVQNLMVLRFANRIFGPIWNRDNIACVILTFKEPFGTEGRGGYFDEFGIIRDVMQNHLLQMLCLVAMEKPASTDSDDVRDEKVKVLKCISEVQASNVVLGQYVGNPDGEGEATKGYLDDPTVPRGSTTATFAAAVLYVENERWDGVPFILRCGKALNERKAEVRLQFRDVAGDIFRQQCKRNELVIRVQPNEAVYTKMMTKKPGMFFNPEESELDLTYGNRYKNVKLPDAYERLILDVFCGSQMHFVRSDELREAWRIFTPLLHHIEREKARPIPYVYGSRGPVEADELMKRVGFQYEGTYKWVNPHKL
From the text: The compound listed below are screened as inhibitors of purified bovine adrenal G6PDH activity as one predictor of cancer preventive action. The assay for testing the inhibition of purified bovine adrenal G6PDH is according to the procedure by Oertell, G. W. and Rebelein, I. in Biochem. Biophys. Acta, 184, 459-460 (1969).

[6] = Estrogenic and anti-estrogenic activity, uterine weight; assay type: in vivo, rat (female CD); conditions: Table 2a; 60 mg/kg s.c. for 3 days; control 1.95 ± 0.22; DHEA significantly greater than control, p < 0.001
Description: Estrogenic and Anti-Estrogenic Activity
Female CD rats, 26-27 days old, were injected subcutaneously for 3 days with one of the compounds of the present invention at 60 mg/kg in propylene glycol. Controls received propylene glycol alone. On the 4th day, the rats were killed and the uteri were dissected out and weighed.

[7] = tested on: mouse epidermis (TPA stimulated 3H-thymidine incorporation); assay: TPA stimulation of 3H-thymidine incorporation in mouse epidermis, oral steroid; assay type: in vivo, mouse (male ICR)
Description: Tumor promoters, such as TPA, stimulate hyperplasia and DNA synthesis when applied to the skin, and it is believed that this stimulation is an important step in the enhancement of tumorigenesis.
Male ICR mice were orally intubated with steroid suspended in sesame oil (0.5 ml/mouse) at the indicated dose. Mice not receiving steroid were given sesame oil alone. One hour later mice received topical application of TPA and 20 hours later the rate of ^3 H-thymidine incorporation into the epidermis was determined as described in Pashko, L. L., Schwartz, A. G., Abou-Gharbia, M., and Swern, D. (1981), Inhibition of DNA synthesis in mouse epidermis and breast epithelium by dehydroepiandrosterone and related steroids, Carcinogenesis, 2,-717-721.
Experimental conditions are the same as in Table 3.

[8] = tested on: mouse skin DNA; assay: (3H) DMBA binding to skin DNA; assay type: in vivo, mouse (A/J); conditions: oral, mice, doses well below 400 mg/kg
[9] = Anti-obesity action, body weight, female Balb/c mice; assay type: in vivo, mouse (female Balb/c); conditions: 0.25% in diet
Description: Female Balb/c (8 weeks old) mice were obtained from
the Jackson Laboratory and were housed in polycarbonate cages
(6 mice/cage) in animal quarters maintained at 24 ± 1° C. with
12 hours of light and 12 hours of darkness each day. One
week after arrival, the mice were placed on a diet containing
either DHEA, 8354, or without steroid. Animals were weighed

[10] = Liver weight after three weeks of diet treatment; assay type: in vivo, mouse (female Balb/c); conditions: 0.25% of diet; for LIVER WEIGHT: control 0.057 ± 0.006, DHEA p < 0.05, clofibrate p < 0.002 vs control; for liver weight, in words: mice
Description: (§1) Female Balb/c mice were housed in polycarbonate cages (6/mice/cage) in animal quarters maintained at 24°±1° C. with 12 hours of light and 12 hours of dark each day. The mice were placed on a diet containing either DHEA, 8354, A, B clofibrate or with no addition. Three weeks later the mice were killed, the livers were perfused with cold saline, weighed, and 5% liver homogenates were prepared for the determination of catalase activity by the spectrophotometric method of Luck (H. Luck, in Method in Enzyme Analysis, H. U. Bergmeyer, Ed. (Verlag Chemie, Weinheim/Bergstrasse, Germany, 1965)). Total protein was measured by the method of Lowry, et al. (O. H. Lowry, N. J. Rosebrough, A. L. Farr, R. J. Randall, J. Biol. Chem., 193, 265 (1951)).

[11] = tested on: liver catalase; assay: Liver catalase activity after three weeks of diet treatment; assay type: in vivo, mouse (female Balb/c); conditions: 0.25% of diet; for CATALASE ACTIVITY: control 31.1 ± 6.7, DHEA p < 0.05, clofibrate p < 0.001 vs control; for catalase activity, in words: mice
Description: as §1

[12] = Estrogenic / androgenic side-effects, general statements; conditions: in vivo
[13] = Anti-weight effect in mice, general statements; assay type: in vivo, mouse
From the text: (Table 9 vs Table 5 and Table 6). […] Thus the cancer preventive the cancer preventive effect of DHEA may result indirectly from its anti-weight action rather than from a direct effect of DHEA or target cells.

[14] = tested on: mammalian glucose-6-phosphate dehydrogenase (G6PDH); conditions: cited from earlier work
[15] = tested on: human lymphocytes (Epstein-Barr virus-induced transformation); conditions: cited from earlier work
[16] = 10^-5 M, read-out: Percent Inhibition of G6PDH
[17] = 10^-6 M, read-out: Percent Inhibition of G6PDH

CCCCC(CC)COC(=O)c1ccccc1C(=O)OCC(CC)CCCC (stereo not shown) [di(2-ethylhexyl)-phthalate]
liver basophilic lesions, enzyme-negative [1]: also produced
effect on liver (type of hepatomegaly) [2]: Typical peroxisome proliferators

C[C@H]1CC[C@@]2(C)C(=CC[C@@H]3[C@@H]2CC[C@]2(C)C(=O)CC[C@@H]32)C1 [3β-methylandrost-5-en-17-one]
skin papilloma formation [3]: inhibit
DMBA produced papillomas and carcinomas [4]: inhibits DMBA produced papillomas and carcinomas

C[C@]12CCCCC1=CC[C@@H]1[C@@H]2CC[C@]2(C)C(=O)[C@H](F)C[C@@H]12 [Compound 8354]
Percent Inhibition of G6PDH ([5]; 10^-5 M): 83%
inhibition at 10 µM [5, 16]: 79%
Percent Inhibition of G6PDH ([5]; 10^-6 M): 77%
inhibition at 1 µM [5, 17]: 75%
Mean Uterine Weigh ± S.D. [6]: 1.93 ± 0.29
SPECIFIC ACTIVITY, TPA stimulated 3H-thymidine incorporation ([7]; Table 9, oral 25 mg/kg, no steroid 55.1, TPA alone 118): 47.9 ± 2.0 cpm/ug DNA
SPECIFIC ACTIVITY, TPA stimulated 3H-thymidine incorporation ([7]; Table 9, oral 50 mg/kg, no steroid 55.1, TPA alone 118): 36.2 ± 1.4 cpm/ug DNA
SPECIFIC ACTIVITY, TPA stimulated 3H-thymidine incorporation ([7]; Table 9, oral 100 mg/kg, no steroid 55.1, TPA alone 118): 15.0 ± 6.3 cpm/ug DNA
effect on 3H-DMBA binding to skin DNA [8]: inhibit ^3 H-DMBA binding to skin DNA
mean weekly weight ± S.D. ([9]; week 0, control 17.5 ± 1.4): 17.4 ± 0.6 grams
mean weekly weight ± S.D. ([9]; week 1, control 19.9 ± 1.2): 16.9 ± 1.0 grams
mean weekly weight ± S.D. ([9]; week 2, control 20.6 ± 1.0): 17.8 ± 0.8 grams
mean weekly weight ± S.D. ([9]; week 3, control 21.8 ± 0.8): 18.0 ± 1.3 grams
LIVER WEIGHT [10]: 0.066 ± 0.005 gm/gm body weight
liver weight, in words [10]: no effect on liver weight; also recorded: neither increased liver weight
CATALASE ACTIVITY [11]: 29.2 ± 2.6 Units per mg protein
catalase activity, in words [11]: no effect on liver weight or catalase activity
estrogenic and androgenic side-effects [12]: lacking the estrogenic and androgenic side-effects of DHEA
activity as an anti-obesity agent relative to DHEA ([13]; mouse, in vivo): several times more active than DHEA as an anti-obesity agent
anti-weight effect at the cancer preventive dosages ([13]; oral, mice): possible exception

C[C@]12CCCC[C@@H]1CC[C@@H]1[C@@H]2CC[C@]2(C)C(=O)[C@H](O)C[C@@H]12 [A]
Percent Inhibition of G6PDH ([5]; 10^-5 M): 92% and 91%
inhibition at 10 µM [5, 16]: 94%
inhibition at 1 µM [5, 17]: 72%
Percent Inhibition of G6PDH ([5]; 10^-7 M): 25%
inhibition at 0.1 µM ([5]; 10^-7 M, read-out: Percent Inhibition of G6PDH): 17%
SPECIFIC ACTIVITY, TPA stimulated 3H-thymidine incorporation ([7]; Table 3, oral 25 mg/kg, no steroid 70.2, TPA alone 154): 77.4 ± 10.4 cpm/ug DNA
SPECIFIC ACTIVITY, TPA stimulated 3H-thymidine incorporation ([7]; Table 3, oral 50 mg/kg, no steroid 70.2, TPA alone 154): 35.2 ± 1.8 cpm/ug DNA
SPECIFIC ACTIVITY, TPA stimulated 3H-thymidine incorporation ([7]; Table 3, oral 100 mg/kg, no steroid 70.2, TPA alone 154): 8.1 ± 4.1 cpm/ug DNA
effect on 3H-DMBA binding to skin DNA [8]: inhibit ^3 H-DMBA binding to skin DNA
LIVER WEIGHT [10]: 0.058 ± 0.004 gm/gm body weight
liver weight, in words [10]: no effect on liver weight; also recorded: neither increased liver weight
CATALASE ACTIVITY [11]: 42.3 ± 7.2 Units per mg protein
catalase activity, in words [11]: no effect on liver weight or catalase activity
estrogenic and androgenic side-effects [12]: lacking the estrogenic and androgenic side-effects of DHEA

C[C@]12CC[C@H](O)C[C@@H]1CC[C@@H]1[C@@H]2CC[C@]2(C)C(=O)C(Br)C[C@@H]12 (stereo partly shown) [16-bromo-epiandrosterone]
inhibition of mammalian G6PDH [14]: more potent inhibitor of mammalian G6PDH than DHEA
inhibition of Epstein-Barr virus-induced transformation [15]: inhibitors of Epstein-Barr virus-induced transformation of human lymphocytes
